Experimental findings from patent US12378224B2 (Dong-A Socio Holdings Co., Ltd., priority 2016, dated 2025) are described below.

Sequence of human MER (528-end) (Q12866 528-999 limits assumed): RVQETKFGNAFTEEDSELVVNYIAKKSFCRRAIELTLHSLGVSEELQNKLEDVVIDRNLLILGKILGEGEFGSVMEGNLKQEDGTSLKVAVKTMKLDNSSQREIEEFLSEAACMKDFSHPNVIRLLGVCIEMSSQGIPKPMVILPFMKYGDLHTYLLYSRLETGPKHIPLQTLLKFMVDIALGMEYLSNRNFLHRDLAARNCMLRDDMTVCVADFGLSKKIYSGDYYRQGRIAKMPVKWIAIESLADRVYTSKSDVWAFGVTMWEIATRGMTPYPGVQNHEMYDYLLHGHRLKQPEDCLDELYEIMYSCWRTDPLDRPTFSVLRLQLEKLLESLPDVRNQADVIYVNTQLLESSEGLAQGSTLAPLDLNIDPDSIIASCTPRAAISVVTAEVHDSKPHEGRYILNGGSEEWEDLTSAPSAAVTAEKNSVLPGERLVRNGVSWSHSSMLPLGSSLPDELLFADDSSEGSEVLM

For this test, the target named is human MER (528-end) (Homo sapiens (Human), UniProt Q12866). The test is described as follows: HTRF Kinase Activity Biochemical Assay (KinEASE-TK). The note with it: 10 uM ATP. The protocol:
For the SAR (structure-activity relationship) and compound screening, HTRF (Homogeneous Time Resolved Fluorescence) kinase activity assay was employed for all MER, AXL and TYRO3 kinases using Cisbio HTRF® KinEASE™-TK kit (Cisbio, USA). The kit includes biotin-labeled TK substrate, streptavidin-XL665, Eu3+-cryptate-labeled TK antibody and HTRF® Detection buffer. There are two main steps in the kinase assay: kinase reaction and detection of phosphorylated substrate. The reaction was carried out in white low volume 384-well plate (Corning, USA) with 25 nL compound in dimethyl sulfoxide in each well. […] Then the reaction was stopped after 1 hour incubation at room temperature by adding 5 uL of HTRF® Detection buffer which also contains 0.375 nM Eu3+-cryptate-labeled TK antibody and 0.062 uM streptavidin-XL665(SA-XL665) to allow for detection of the phosphorylated peptide product. After 1 h incubation at room temperature, the fluorescence intensity was measured with Envision™ plate reader (PerkinElmer, USA). Upon excitation at 340 nm by UV, the energy from Eu3+ donor of the antibody is transferred to the FRET acceptor XL665, and […] emits light at 665 nm. The level of kinase activity was quantified by the HTRF ratio that calculated from the intensity of emission at 665 nm and emission at 620 nm (fluorescence intensity @ 665 nm/fluorescence intensity @ 620 nm×10,000). The recombinant protein of human MER (528-end) was purchased from Carnabio, Japan. The recombinant human AXL (473-end) and TYRO3 (455-end) were purchased from SignalChem, Canada.
In general terms: Time-resolved FRET reads energy transfer from a long-lived donor to a nearby acceptor.
For `Cc1ccc(OC(=O)N2CC[C@@H](NC(=O)c3cc(-c4cnn(C)c4)cnc3N)C2)cc1C` [Example 94, 3,4-dimethylphenyl (R)-3-(2-amino-5-(1-methyl-1H-pyrazol-4-yl)nicotinamido)pyrrolidine-1-carboxylate], the IC50 (in general, the concentration that inhibits the measured activity by half) is more than 1000 nM.
Take `Cn1cc(-c2cnc(N)c(C(=O)N[C@@H]3CCN(C(=O)OC4CCCCCC4)C3)c2)cn1` [Example 107, cycloheptyl (R)-3-(2-amino-5-(1-methyl-1H-pyrazol-4-yl)nicotinamido)pyrrolidine-1-carboxylate]: the IC50 was more than 1000 nM.
The same measure for `Cn1cc(-c2cnc(N)c(C(=O)N[C@@H]3CCN(Cc4ccccc4Cl)C3)c2)cn1` [Example 208, (R)-2-amino-N-(1-(2-chlorobenzyl)pyrrolidin-3-yl)-5-(1-methyl-1H-pyrazol-4-yl)nicotinamide]: 100 to 1000 nM.
`Cn1cc(-c2cnc(N)c(C(=O)N[C@@H]3CCN(C(=O)Nc4cccc(-c5ccc(N)cc5)c4)C3)c2)cn1` [Example 258, (R)-2-amino-N-(1-((4′-amino-[1,1′-biphenyl]-3-yl)carbamoyl)pyrrolidin-3-yl)-5-(1-methyl-1H-pyrazol-4-yl)nicotinamide] yielded an IC50 of 100 to 1000 nM.
Compound `Cn1cc(-c2cnc(N)c(C(=O)N[C@@H]3CCN(C(=O)Oc4ccccc4C#N)C3)c2)cn1` [Example 62, 2-cyanophenyl (R)-3-(2-amino-5-(1-methyl-1H-pyrazol-4-yl)nicotinamido)pyrrolidine-1-carboxylate] had an IC50 of more than 1000 nM.
The compound `CN(C)Cc1cccc(-c2cccc(NC(=O)N3CC[C@@H](NC(=O)c4cc(-c5cnn(C)c5)cnc4N)C3)c2)c1` [Example 265, (R)-2-amino-N-(1-((3′-((dimethylamino)methyl)-[1,1′-biphenyl]-3-yl)carbamoyl)pyrrolidin-3-yl)-5-(1-methyl-1H-pyrazol-4-yl)nicotinamide] returned an IC50 of 10 to 100 nM.
Compound `CN1CCN(Cc2ccc(Oc3cccc(C(=O)N4CC[C@@H](NC(=O)c5cc(-c6cnn(C)c6)cnc5N)C4)c3)cc2)CC1` [Example 446, (R)-2-amino-5-(1-methyl-1H-pyrazol-4-yl)-N-(1-(3-(4-((4-methylpiperazin-1-yl)methyl)phenoxy)benzoyl)pyrrolidin-3-yl)nicotinamide] returned an IC50 of more than 1000 nM.
Turning to `Cn1cc(-c2cnc(N)c(C(=O)N[C@@H]3CCN(C(=O)Oc4cccc5ccccc45)C3)c2)cn1` [Example 68, naphthalen-1-yl (R)-3-(2-amino-5-(1-methyl-1H-pyrazol-4-yl)nicotinamido)pyrrolidine-1-carboxylate], the IC50 is more than 1000 nM.
Turning to `Cn1cc(-c2cnc(N)c(C(=O)N[C@@H]3CCN(C(=O)Nc4cccc(F)c4)C3)c2)cn1` [Example 2, (R)-2-amino-N-(1-((3-fluorophenyl)carbamoyl)pyrrolidin-3-yl)-5-(1-methyl-1H-pyrazol-4-yl)nicotinamide], the IC50 is more than 1000 nM.
Next, `CN1CCN(Cc2ccc(-c3cccc4c(C(=O)N5CC[C@@H](NC(=O)c6cc(-c7cnn(C)c7)cnc6N)C5)cccc34)cc2)CC1` [Example 443, (R)-2-amino-5-(1-methyl-1H-pyrazol-4-yl)-N-(1-(5-(4-((4-methylpiperazin-1-yl)methyl)phenyl)-1-naphthoyl)pyrrolidin-3-yl)nicotinamide]: more than 1000 nM; `Nc1ncc(-c2ccc(CN3CCOCC3)cc2)cc1C(=O)N[C@@H]1CCN(C(=O)Nc2cccc(-c3ccccc3)c2)C1` [Example 38, (R)—N-(1-([1,1′-biphenyl]-3-ylcarbamoyl)pyrrolidin-3-yl)-2-amino-5-(4-(morpholinomethyl)phenyl)nicotinamide]: 10 to 100 nM; `Cn1cc(-c2cnc(N)c(C(=O)N[C@@H]3CCN(C(=O)N[C@@H]4CCCC[C@H]4O)C3)c2)cn1` [Example 32, 2-amino-N—((R)-1-(((1R,2R)-2-hydroxycyclohexyl)carbamoyl)pyrrolidin-3-yl)-5-(1-methyl-1H-pyrazol-4-yl)nicotinamide]: more than 1000 nM.
The compound `Cn1cc(-c2cnc(N)c(C(=O)N[C@@H]3CCN(C(=O)Nc4ccccc4Oc4ccccc4)C3)c2)cn1` [Example 18, (R)-2-amino-5-(1-methyl-1H-pyrazol-4-yl)-N-(1-((2-phenoxyphenyl)carbamoyl)pyrrolidin-3-yl)nicotinamide] returned an IC50 of more than 1000 nM.
Take `Cn1cc(-c2cnc(N)c(C(=O)N[C@H]3CN(C(=O)c4ccc(-c5ccc(F)cc5Cl)cc4)C[C@H]3F)c2)cn1` [Example 682, 2-amino-N-((3S,4R)-1-(2′-chloro-4′-fluoro-[1,1′-biphenyl]-4-carbonyl)-4-fluoropyrrolidin-3-yl)-5-(1-methyl-1H-pyrazol-4-yl)nicotinamide]: the IC50 is more than 1000 nM.
Compound `Cn1cc(-c2cnc(N)c(C(=O)N[C@@H]3CCN(C(=O)c4cccc(O)c4)C3)c2)cn1` [Example 515, (R)-2-amino-N-(1-(3-hydroxybenzoyl)pyrrolidin-3-yl)-5-(1-methyl-1H-pyrazol-4-yl)nicotinamide] registered an IC50 of more than 1000 nM.
For `Cn1cc(-c2cnc(N)c(C(=O)N[C@@H]3CCN(C(=O)c4ccc(-c5ccc(C(F)(F)F)cc5)cc4)C3)c2)cn1` [Example 371, (R)-2-amino-5-(1-methyl-1H-pyrazol-4-yl)-N-(1-(4′-(trifluoromethyl)-[1,1′-biphenyl]-4-carbonyl)pyrrolidin-3-yl)nicotinamide], the IC50 is more than 1000 nM.
In turn, `Cn1cc(-c2cnc(N)c(C(=O)N[C@@H]3CCN(C(=O)Oc4ccc(Oc5ccc(CO)cc5)cc4)C3)c2)cn1` [Example 114, 4-(4-(hydroxymethyl)phenoxy)phenyl (R)-3-(2-amino-5-(1-methyl-1H-pyrazol-4-yl)nicotinamido)pyrrolidine-1-carboxylate] registered a concentration for half-maximal inhibition (IC50) of 100 to 1000 nM.
`Cn1cc(-c2cnc(N)c(C(=O)N[C@@H]3CCN(C(=O)c4cccc(-c5cccnc5)c4)C3)c2)cn1` [Example 472, (R)-2-amino-5-(1-methyl-1H-pyrazol-4-yl)-N-(1-(3-(pyridin-3-yl)benzoyl)pyrrolidin-3-yl)nicotinamide] showed an IC50 of more than 1000 nM.
Next, `Cn1cc(-c2cnc(N)c(C(=O)N[C@@H]3CCN(C(=O)Oc4ccc(Cl)c(Cl)c4)C3)c2)cn1` [Example 88, 3,4-dichlorophenyl (R)-3-(2-amino-5-(1-methyl-1H-pyrazol-4-yl)nicotinamido)pyrrolidine-1-carboxylate]: more than 1000 nM; `Cn1cc(-c2cnc(N)c(C(=O)N[C@@H]3CCN(C(=O)Oc4cccc(-c5ccc(C(=O)O)cc5)c4)C3)c2)cn1` [Example 278, (R)-3′-((3-(2-amino-5-(1-methyl-1H-pyrazol-4-yl)nicotinamido)pyrrolidine-1-carbonyl)oxy)-[1,1′-biphenyl]-4-carboxylic acid]: more than 1000 nM.
Next, `Cn1cc(-c2cnc(N)c(C(=O)N[C@@H]3CCN(Cc4ccc(-c5ccccc5)cc4)C3)c2)cn1` [Example 226, (R)—N-(1-([1,1′-biphenyl]-4-ylmethyl)pyrrolidin-3-yl)-2-amino-5-(1-methyl-1H-pyrazol-4-yl)nicotinamide]: more than 1000 nM; `CN(C)Cc1ccc(Oc2ccc(OC(=O)N3CC[C@@H](NC(=O)c4cc(-c5cnn(C)c5)cnc4N)C3)cc2)cc1` [Example 115, 4-(4-((dimethylamino)methyl)phenoxy)phenyl (R)-3-(2-amino-5-(1-methyl-1H-pyrazol-4-yl)nicotinamido)pyrrolidine-1-carboxylate]: 100 to 1000 nM.
The same measure for `Cn1cc(-c2cnc(N)c(C(=O)N[C@@H]3CCN(C(=O)Oc4ccc(Cl)cc4N)C3)c2)cn1` [Example 99, 2-amino-4-chlorophenyl (R)-3-(2-amino-5-(1-methyl-1H-pyrazol-4-yl)nicotinamido)pyrrolidine-1-carboxylate]: more than 1000 nM; for `Cn1cc(-c2cnc(N)c(C(=O)N[C@@H]3CCN(C(=O)c4ccc(-c5ccc(Oc6nn[nH]n6)cc5)cc4)C3)c2)cn1` [Example 814, (R)—N-(1-(4′-((2H-tetrazol-5-yl)oxy)-[1,1′-biphenyl]-4-carbonyl)pyrrolidin-3-yl)-2-amino-5-(1-methyl-1H-pyrazol-4-yl)nicotinamide]: 100 to 1000 nM; for `Cc1cnc(-c2ccc(C(=O)N3CC[C@@H](NC(=O)c4cc(-c5cnn(C)c5)cnc4N)C3)cc2)s1` [Example 543, (R)-2-amino-5-(1-methyl-1H-pyrazol-4-yl)-N-(1-(4-(5-methylthiazol-2-yl)benzoyl)pyrrolidin-3-yl)nicotinamide]: 100 to 1000 nM.
`Cn1cc(-c2cnc(N)c(C(=O)N[C@@H]3CCN(C(=O)Nc4cccc(-c5ccc(N6CCNCC6)nc5)c4)C3)c2)cn1` [Example 261, (R)-2-amino-5-(1-methyl-1H-pyrazol-4-yl)-N-(1-((3-(6-(piperazin-1-yl)pyridin-3-yl)phenyl)carbamoyl)pyrrolidin-3-yl)nicotinamide]: the IC50 was in the range of 100 to 1000 nM.
As to `Nc1ncc(-c2ccc(F)c(F)c2)cc1C(=O)N[C@@H]1CCN(C(=O)Oc2cccc(-c3ccccc3)c2)C1` [Example 84, [1,1′-biphenyl]-3-yl (R)-3-(2-amino-5-(3,4-difluorophenyl)nicotinamido)pyrrolidine-1-carboxylate], the IC50 was more than 1000 nM.
